From patent US10377778B2, “Lead and thorium compounds” (Sciencons AS, priority 2017, dated 2019)

Experiments:
[1] = system: C4-2 PSMA-positive xenografts; experiment: Biodistribution of radiolabelled ligands (^224Ra/^212Pb solutions, ^177Lu) in nude mice with C4-2 xenografts
Procedure: Each group usually consisted of three mice. […] Approximately 16 kBq of ^224Ra/^212Pb was injected in each animal, i.e., approximately 0.2 nmol of ligand per mouse. Animals were given anaesthesia and sacrificed by cervical dislocation followed by dissection and harvesting of tissue-, blood- and urine samples. The samples were weighed and counted on a gamma counter.
Three mice in each group. […] The molar concentration was the same for both products, i.e., 12.5 nmol per MBq. Approximately 16 kBq of ^224Ra/^212Pb was injected in each animal, i.e., approximately 0.2 nmol of ligand per mouse. Animals were given anaesthesia and sacrificed by cervical dislocation followed by dissection and harvesting of tissue-, blood- and urine samples. The samples were weighed and counted on a gamma counter.
Methods: Tumor and kidney uptake of ^212Pb-labeled p-SCN-Bn-TCMC-PSMA ligand 1 and ^177Lu-labeled PSMA-617 was compared at 1 hours and 4 hours after administration of the products by intravenous injection into nude mice with C4-2 xenografts as described in Example 9.

[2] = system: C4-2 PSMA positive human prostate cells xenografts; experiment: Comparative therapy experiment in nude mice with C4-2 xenografts; type: in vivo; details: 52 MBq ^177Lu-PSMA-617 or 320 kBq ^212Pb-ligand 1
Procedure: Male nude mice were inoculated in the flanks with C4-2 PSMA positive human prostate cells and 2 weeks later when tumors were 5-7 mm in diameters. Groups of 8 animals each received saline, 52 MBq of ^177Lu-PSMA-617 or 320 kBq of ^212Pb-p-SCN-Bn-TCMC-PSMA ligand 1. Animals were sacrificed when tumor size reached 20 mm due to animal welfare requirements. […] For ^212Pb the effective half-life was assumed to be 10.6 h, 10% of injected dose per gram decays in tumor and 100% of radiation in a tumor is absorbed in the tumor, 100% retention of ^212Pb and daughters in the tumors and 8 MeV radiation energy per decay. The tumor dosimetry for the injected activities gave on average 35.9 Gy to tumors for ^177Lu-PSMA-617 and 2.06 Gy to tumors for ^212Pb-p-SCN-Bn-TCMC-PSMA ligand 1 groups respectively.

PC3 PIP model = details: mouse xenografts, model used by other researchers; cited from earlier work
[3] = Stability testing of ^212Pb-labeled ligands in vitro (TLC radiochemical purity in PBS and FBS); type: physicochemical; details: 37° C.
Procedure: Thin layer chromatography (TLC) was performed using chromatography strips (model #150-772, Biodex Medical Systems Inc, Shirley, N.Y., USA). A formulation buffer (FB) consisting of 7.5% human serum albumin and 5 mM EDTA in DPBS and adjusted to approximately pH 7 with NaOH was mixed with the antibody conjugates in ratio 2:1 for at least 5 minutes before application to the strips to determine free radionuclide. A small beaker with about 0.5 ml of 0.9% NaCl was used to place strips with a sample spot in. To the strip was typically added 1-4 μl of sample at approximately 10% above the bottom of the strip. After the solvent front had moved to about 20% from the top of the strip, the strip was cut in half and each half was placed in a 5 ml test tube for counting. In this system radiolabeled ligand stays at the bottom half while radionuclide complexed with EDTA migrates to the upper half. It was verified that free cations of both ^212Pb and ^177Lu would complex with EDTA and moved to the top.
TLC analyses were performed at 1 h, 4 h, 24 h and 48 h of incubation. […]

C4-2 cells = experiment: Prostate cancer cell binding of ^212Pb-labeled ligands; design: species or system human; details: labeled with ^212Pb
Procedure: The cell binding fractions measured by adding about 1 ng of radioligand to 0.2 ml of C4-2 cells (5×10^7 cells per ml) in a 5 ml test tube and incubate for 1 h before measuring applied activity, wash cells 3 times with 0.5 ml 0.5% bovine serum albumin in DPBS and thereafter recount the washed cell pellet. […] Nonspecific binding was measured by blocking the cells with excess 10 μg/ml of unlabelled ligand before adding radioligand.

With O=C([O-])CN1CCN(CC(=O)[O-])CCN(CC(=O)NCC2CCC(C(=O)N[C@@H](Cc3ccc4ccccc4c3)C(=O)NCCCC[C@H](NC(=O)N[C@@H](CCC(=O)O)C(=O)O)C(=O)O)CC2)CCN(CC(=O)[O-])CC1.[177Lu+3] (some centres unmarked) [^177Lu-PSMA-617, reference compound] the Average tumor-to-kidney ratio ([1]; 1-hour point after administration) was 0.17, the Tumor-to-kidney ratio ([1]; 4-hour timepoint) was 0.8 and the “Kidney uptake (average)” value ([1]; 4 hours after i.v. injection) was 17.4 % ID/g. The “Tumor uptake (average)” value ([1]; 4 hours after i.v. injection) was 13.6 % ID/g, the “Typical PSMA-ligand uptake of the xenograft model used” value ([1]; mouse xenografts, tumor model with intermediary level of uptake) was 10-15 % ID/g and the “Survival at day 30 after treatment” value ([2]; groups of 8, saline group 0%) was 12.5%. The Median survival ([2]; saline group 15 days) was 20 days and the “Typical uptake in PC3 PIP model” value (PC3 PIP model) was 30-40 % ID/g.

With O=C(O)CCC(NC(=O)NC(CCCCNC(=O)C(Cc1ccc2ccccc2c1)NC(=O)C1CCC(CNC(=O)CN2CCN(CC(=O)O)CCN(CC(=O)O)CCN(CC(=O)O)CC2)CC1)C(=O)O)C(=O)O.[212Pb+2] (centres unmarked) [^212Pb-PSMA-617, reference compound] the Radiochemical purity ([3]; FBS, 1 h since start of incubation, in ^224Ra/^212Pb solution) was 92.13%, the Radiochemical purity ([3]; FBS, 4 h) was 94.37% and the Radiochemical purity ([3]; FBS, 24 h) was 94.54%. It also gave a Radiochemical purity ([3]; FBS, 48 h) of 95.65%, a Radiochemical purity ([3]; PBS, 1 h since start of incubation, in ^224Ra/^212Pb solution) of 91.62% and a Radiochemical purity ([3]; PBS, 4 h) of 94.33%. For the same molecule, the Radiochemical purity ([3]; PBS, 24 h) was 93.26% and the Radiochemical purity ([3]; PBS, 48 h) was 93.17%.

For NC(=O)CN1CCN(CC(N)=O)CCN(CC(N)=O)C(Cc2ccc(NC(=S)NC[C@H]3CC[C@H](C(=O)N[C@@H](Cc4ccc5ccccc5c4)C(=O)NCCCC[C@H](NC(=O)N[C@@H](CCC(=O)O)C(=O)O)C(=O)O)CC3)cc2)CN(CC(N)=O)CC1 (stereo partly drawn) [p-SCN-Bn-TCMC-PSMA ligand 1, (((1S)-1-carboxy-5-((2S)-3-(naphthalen-2-yl)-2-((1r,4S)-4-((3-(4-((1,4,7,10-tetrakis(2-amino-2-oxoethyl)-1,4,7,10-tetraazacyclododecan-2-yl)methyl)phenyl)thioureido)methyl)cyclohexane-1-carboxamido)propanamido)pentyl)carbamoyl)-L-glutamic acid; trifloroacetic acid (1:4)], the “Difference in cell-binding versus radiolabelled PSMA-617” value (C4-2 cells) was “No significant difference”.
